In publication PMC9048841 (Journal of medicinal chemistry, 2022):
*1 amine or outer side, *2 acyl side, *3 side chain or, on linkers, in order; H or OH if unused. Where a SMILES comes first, the peptide text is derived from it. [ ]: non-standard residue; d: D form. The star is where a group is joined. Phe(3,4-(OMe)2) = COc1ccc(C[C@H](N)C(=O)O)cc1OC; Lys(Et,iPr) = CCN(CCCC[C@H](N)C(=O)O)C(C)C; X2 = O=C(C(N[*:1])[C@@H](O)c1ccccc1)[*:2]; Lys(Et2) = CCN(CC)CCCC[C@H](N)C(=O)O; Lys(Me2) = CN(C)CCCC[C@H](N)C(=O)O; X1 = O=C(c1ccoc1)*

Legend:
[1] = target: CBX5 chromodomain (wild type) (Homo sapiens, UniProt P45973); assay: ITC binding to wild-type CBX5 chromodomain; conditions: for fold tighter binding of CBX5 than to UNC6212 (Kme2): wild-type CBX5, relative to UNC6212
[2] = target: H3K9me3 peptide (Homo sapiens) (UniProt P68431); conditions: cited from earlier work

CCN(CCCC[C@H](NC(=O)[C@H](Cc1ccc(OC)c(OC)c1)NC(=O)[C@H](C)NC(=O)C(NC(=O)c1ccoc1)[C@@H](O)c1ccccc1)C(=O)N[C@@H](CO)C(N)=O)C(C)C (stereo partly drawn) [UNC6864, N-((8S,11S,14S,18S)-8-(((S)-1-amino-3-hydroxy-1-oxopropan-2-yl)carbamoyl)-11-(3,4-dimethoxybenzyl)-3-ethyl-18-hydroxy-2,14-dimethyl-10,13,16-trioxo-18-phenyl-3,9,12,15-tetraazaoctadecan-17-yl)furan-3-carboxamide] (X1-[X2]A[Phe(3,4-(OMe)2)][Lys(Et,iPr)]S-NH2)
Kd [1]: 3.3 µM
fold tighter binding of CBX5 than to UNC6212 (Kme2) [1]: about 2 fold

CCN(CC)CCCC[C@H](NC(=O)[C@H](Cc1ccc(OC)c(OC)c1)NC(=O)[C@H](C)NC(=O)C(NC(=O)c1ccoc1)[C@@H](O)c1ccccc1)C(=O)N[C@@H](CO)C(N)=O (stereo partly drawn) [UNC6349, N-((8S,11S,14S,18S)-8-(((S)-1-amino-3-hydroxy-1-oxopropan-2-yl)carbamoyl)-11-(3,4-dimethoxybenzyl)-3-ethyl-18-hydroxy-14-methyl-10,13,16-trioxo-18-phenyl-3,9,12,15-tetraazaoctadecan-17-yl)furan-3-carboxamide] (X1-[X2]A[Phe(3,4-(OMe)2)][Lys(Et2)]S-NH2)
fold tighter binding of CBX5 than to UNC6212 (Kme2) [1]: about 2 fold

COc1ccc(C[C@H](NC(=O)[C@H](C)NC(=O)C(NC(=O)c2ccoc2)[C@@H](O)c2ccccc2)C(=O)N[C@@H](CCCCN(C)C)C(=O)N[C@@H](CO)C(N)=O)cc1OC (stereo partly drawn) [UNC6212, N-((7S,10S,13S,17S)-7-(((S)-1-amino-3-hydroxy-1-oxopropan-2-yl)carbamoyl)-10-(3,4-dimethoxybenzyl)-17-hydroxy-2,13-dimethyl-9,12,15-trioxo-17-phenyl-2,8,11,14-tetraazaheptadecan-16-yl)furan-3-carboxamide] (X1-[X2]A[Phe(3,4-(OMe)2)][Lys(Me2)]S-NH2)
Kd [1]: 5.7 µM
fold tighter binding than HP1 with H3K9me3 ([1]; CBX5 with UNC6212 vs HP1 with H3K9me3): about 2.5 fold
fold more potent than histone tail peptides H3K9me3 and H3K9me2 ([1]; KD for CBX5, ligand vs H3K9me3 and H3K9me2): about 5 fold

CBX5 (from UniProt P45973)
Kd [2]: 30 µM
